The target in data set [1] is T1, Androgen Receptor (Homo sapiens, UniProt P10275+P40337, T878A).
T1 construct: Compounds have been evaluated in this assay in LNCaP and/or VCaP cells utilizing similar protocols; endogenous in cells; host or cells: LNCaP cells
Description: Androgen Receptor ELISA assay (PathScan AR ELISA) in LNCaP cells: AR degradation, Dmax and DC50. The data set is classed as cell-based. Background: In an ELISA, binding on a coated surface is turned into a signal by an enzyme label.

A further data set addresses T2, AR (Homo sapiens, UniProt P10275+P40337, T878A).
T2 construct: Compounds have been evaluated in this assay in LNCaP and/or VCaP cells utilizing similar protocols; endogenous in cells; host or cells: LNCaP cells
Description: AR degradation of PROTAC is E3 ligase dependent (LNCaP cells). Format: cell-based. An excerpt: FIG. 7A and FIG. 7B. AR degradation of PROTAC is E3 ligase dependent.
8. AR Degradation of PROTAC is E3 Ligase Dependent.

The subject of data set [2] is LNCaP cells transduced with AR F876L construct. Kind of data set: Anti-proliferation in LNCaP F876L (CellTiterGlo). Format: cell-based. To be noted: Charcoal Stripped Serum media, indicated doses for 7 days. How it is done:
FIG. 3. Anti-proliferation in LNCaP F876L. […] LNCaP cells transduced with AR F876L construct were cultured in Charcoal Stripped Serum containing media.
4. Anti-Proliferation in LNCaP F876L.
LNCaP cells transduced with AR F876L construct were cultured in Charcoal Stripped Serum containing media. […] CellTiterGlo reagent (Promega) was employed to assess proliferation.
In general terms: Cellular ATP, detected with luciferase, serves as a proxy for viable cell number.

The nature of data set [3]: PROTAC subcutaneous pharmacokinetics in CD-1 mice. Format: in vivo. To be noted: male, plasma, CD-1 Mouse, 10 mg/kg SC dose, vehicle ESD-1. The protocol:
9. PROTAC Prodrug Oral Pharmacokinetics and PROTAC Subcutaneous Phamacokinetics.
Representative Pharmacokinetic Procedure
Male CD-1 mice (6-8 weeks old, weighing 20-30 g, 3 per study) with free access to food and water were administered with the test article at 10 mg/kg either by oral gavage or sub-cutaneous injection in the formulation specified in tables 20 and 21, at 10 mL/kg.
Approximately 0.04 mL blood samples were collected from the dorsal metatarsal vein serially at 0.25, 0.5, 1, 2, 4, 8 and 24 h timepoints; heparin was used as the anticoagulant. The samples were centrifuged at 4000 g for 5 min at 4° C. then stored at −75° C. prior to analysis.
The plasma samples were analysed via an LC/MS/MS method quantitating for unchanged, administered test article, and/or a derivative species as appropriate. WinNonlin (Phoenix™) was used for the pharmacokinetic calculations and modeling, to generate parameters such as Cmax and AUC.

The target of data set [4] is T3, Androgen Receptor (Homo sapiens, UniProt P10275).
T3 construct: endogenous in cells; host or cells: VCaP cells
T3 sequence (P10275 1-920): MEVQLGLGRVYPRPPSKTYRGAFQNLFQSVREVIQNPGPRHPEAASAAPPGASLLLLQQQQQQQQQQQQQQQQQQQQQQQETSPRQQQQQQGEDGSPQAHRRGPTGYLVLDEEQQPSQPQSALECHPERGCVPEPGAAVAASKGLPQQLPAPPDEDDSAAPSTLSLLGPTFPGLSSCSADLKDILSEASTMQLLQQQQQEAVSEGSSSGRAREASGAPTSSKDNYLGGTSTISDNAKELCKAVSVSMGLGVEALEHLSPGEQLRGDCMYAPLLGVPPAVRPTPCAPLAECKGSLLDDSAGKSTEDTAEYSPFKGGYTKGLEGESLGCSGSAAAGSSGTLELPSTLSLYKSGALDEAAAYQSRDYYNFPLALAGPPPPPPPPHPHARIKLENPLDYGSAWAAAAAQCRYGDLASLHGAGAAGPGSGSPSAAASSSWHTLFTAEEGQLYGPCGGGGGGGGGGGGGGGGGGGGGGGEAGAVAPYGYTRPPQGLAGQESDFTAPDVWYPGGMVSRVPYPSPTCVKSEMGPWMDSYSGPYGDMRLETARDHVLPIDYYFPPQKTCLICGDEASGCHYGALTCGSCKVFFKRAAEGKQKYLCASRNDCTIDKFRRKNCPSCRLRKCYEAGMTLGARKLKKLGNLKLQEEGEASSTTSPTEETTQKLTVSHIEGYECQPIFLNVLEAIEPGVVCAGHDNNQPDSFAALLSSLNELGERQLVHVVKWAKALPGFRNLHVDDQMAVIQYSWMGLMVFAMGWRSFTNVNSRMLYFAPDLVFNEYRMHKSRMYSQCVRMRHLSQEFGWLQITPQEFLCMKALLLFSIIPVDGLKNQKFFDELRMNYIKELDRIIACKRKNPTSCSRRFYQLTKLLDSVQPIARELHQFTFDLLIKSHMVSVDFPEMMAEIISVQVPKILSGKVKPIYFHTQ
Description: Androgen Receptor ELISA assay (PathScan AR ELISA) in VCaP cells: AR degradation, Dmax and DC50. The data set is classed as cell-based. To be noted: for Dmax: VCaP, read-out: VCaP Dmax (%); for DC50: read-out: VCaP DC50, concentration that caused 50% Androgen Receptor degradation. Summed up: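 VCaP cells, 30,000/well, grown ≥3 days in phenol red-free RPMI with 5% charcoal-stripped FBS; compound added in 0.1% DMSO with 0.1 nM R1881, 7 half-log doses, 24 h. Lysate AR quantified by PathScan sandwich ELISA, HRP/TMB read at 450 nm, giving DC50 and Dmax.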

The next data set deals with VCaP xenograft. Kind of data set: Tumor growth inhibition in VCaP xenograft model. Format: in vivo. The note with it: VCaP cells s.c. in castrated CB17 scid mice; enzalutamide PO, QD, 30 mpk; Example 163 IP, QD, 30, 10 and 3 mpk. An excerpt: FIG. 6. Tumor growth inhibition in VCaP xenograft model. VCaP cells were implanted into CB17 scid mice subcutaneously. Once the tumors were palpable, the mice were castrated, leading to temporary tumor stasis.
7. Tumor Growth Inhibition in VCaP Xenograft Model.
VCaP cells were implanted into CB17 scid mice subcutaneously. Once the tumors were palpable, the mice were castrated, leading to temporary tumor stasis.

A further data set deals with VCaP cells. Description: VCaP cell proliferation assay (Cell Titer Glo), GI50. Format: cell-based. Summed up:
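VCaP cells at 7,500/well were androgen-depleted for at least 3 days in phenol red-free RPMI with 5% charcoal-stripped FBS, then dosed with PROTACs plus 0.1 nM R1881. Growth was read by CellTiter Glo luminescence against a baseline taken on the day of dosing, giving GI50.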

The next data set relates to C57B6 mouse model. Description: Prostate involution in C57B6 mouse model. Format: in vivo. To be noted: 12-week old male C57BL/6 mice; IP, QD, 1 and 3 mpk; 10 days. An excerpt: FIG. 5. Prostate involution in C57B6 mouse model.
6. Prostate Involution in C57B6 Mouse Model.

Entries after “also recorded” stand apart in the source; their conditions may differ. Read-outs that look alike come from different tables or passages of the source. Bounds are passed on as bounds.

T1 sequence (P10275 whole entry T878A): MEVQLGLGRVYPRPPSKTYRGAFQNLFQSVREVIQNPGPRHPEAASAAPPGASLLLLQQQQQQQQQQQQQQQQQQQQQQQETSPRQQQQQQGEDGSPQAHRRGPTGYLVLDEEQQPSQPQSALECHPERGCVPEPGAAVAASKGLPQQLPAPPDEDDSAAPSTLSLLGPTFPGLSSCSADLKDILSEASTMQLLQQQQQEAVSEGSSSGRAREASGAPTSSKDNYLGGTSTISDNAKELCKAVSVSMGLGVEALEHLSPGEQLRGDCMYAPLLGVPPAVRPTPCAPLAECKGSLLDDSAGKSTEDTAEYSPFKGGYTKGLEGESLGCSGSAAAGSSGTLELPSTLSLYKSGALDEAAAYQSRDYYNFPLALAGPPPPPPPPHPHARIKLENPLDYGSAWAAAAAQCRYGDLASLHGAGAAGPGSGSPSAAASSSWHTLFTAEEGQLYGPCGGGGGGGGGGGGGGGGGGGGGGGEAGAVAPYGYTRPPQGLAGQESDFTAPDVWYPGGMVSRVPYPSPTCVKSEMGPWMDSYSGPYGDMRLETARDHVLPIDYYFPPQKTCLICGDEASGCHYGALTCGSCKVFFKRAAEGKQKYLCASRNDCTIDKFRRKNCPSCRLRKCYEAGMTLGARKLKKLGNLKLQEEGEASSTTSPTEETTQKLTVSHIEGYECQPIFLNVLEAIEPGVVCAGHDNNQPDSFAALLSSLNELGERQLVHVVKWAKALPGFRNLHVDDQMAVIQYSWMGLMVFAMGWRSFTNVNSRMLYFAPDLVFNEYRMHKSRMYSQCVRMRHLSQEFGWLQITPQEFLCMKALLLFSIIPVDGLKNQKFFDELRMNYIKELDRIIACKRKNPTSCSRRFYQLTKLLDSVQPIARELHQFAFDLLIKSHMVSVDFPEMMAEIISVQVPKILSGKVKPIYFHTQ
T1 sequence (P40337 whole entry): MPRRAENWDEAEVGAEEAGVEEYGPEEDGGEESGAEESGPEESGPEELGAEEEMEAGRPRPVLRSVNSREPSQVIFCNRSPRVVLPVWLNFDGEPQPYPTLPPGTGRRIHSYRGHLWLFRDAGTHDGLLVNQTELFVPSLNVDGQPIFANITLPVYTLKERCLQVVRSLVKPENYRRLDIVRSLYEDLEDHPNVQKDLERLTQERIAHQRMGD
T1 sequence (Q15369 whole entry partner): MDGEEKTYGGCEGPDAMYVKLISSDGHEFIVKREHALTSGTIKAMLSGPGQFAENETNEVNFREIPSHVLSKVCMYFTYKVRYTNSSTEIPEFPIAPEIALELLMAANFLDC
T1 sequence (Q15370 whole entry partner): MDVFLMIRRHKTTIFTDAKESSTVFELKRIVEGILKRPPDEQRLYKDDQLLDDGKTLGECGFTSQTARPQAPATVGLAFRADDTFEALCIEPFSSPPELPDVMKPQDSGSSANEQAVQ
T2 sequence (P10275 whole entry T878A): as the sequence (P10275 whole entry T878A) above
T2 sequence (P40337 whole entry): as the sequence (P40337 whole entry) above
T2 sequence (Q15369 whole entry partner): as the sequence (Q15369 whole entry partner) above
T2 sequence (Q15370 whole entry partner): as the sequence (Q15370 whole entry partner) above

By DC50 is commonly meant the concentration at which degradation of the target reaches its halfway point. As a reminder, the Dmax is the greatest extent of degradation seen. By Cmax is commonly meant the peak of the concentration-time curve. Regarding `Cc1ncsc1-c1ccc(CNC(=O)[C@@H]2C[C@@H](O)CN2C(=O)[C@@H](NC(=O)COCCCOCCCCCOc2ccc(N3C(=S)N(c4ccc(C#N)c(C(F)(F)F)c4)C(=O)C3(C)C)cc2)C(C)(C)C)cc1` [Example 1, (2S,4R)-1-((S)-2-(2-(3-(5-(4-(3-(4-cyano-3-(trifluoromethyl)phenyl)-5,5-dimethyl-4-oxo-2-thioxoimidazolidin-1-yl)phenoxy)pentyloxy)propoxy)acetamido)-3,3-dimethylbutanoyl)-4-hydroxy-N-(4-(4-methylthiazol-5-yl)benzyl)pyrrolidine-2-carboxamide], the half-maximal degradation concentration (DC50) on Androgen Receptor [1] (concentration that caused 50% Androgen Receptor degradation) and on Androgen Receptor [4] (VCaP cells) was < 50 nM in each case. In addition, the Dmax at Androgen Receptor [1] (highest percentage of Androgen Receptor degradation observed) is > 71%; on Androgen Receptor [4], 51 to 70%. For the same molecule, the “AR degradation activity in the presence of VHL E3 ligase ligand compound B” value on AR (24 hours, 10 uM compound B) is reported as “greatly diminishes the AR degradation activity”. The “degradation of AR” value on AR (PROTAC versus inactive epimer analog unable to bind VHL E3 ligase) is listed as “significant degradation of AR”. The “proliferation / agonist activity in LNCaP F876L cells” value in data set [2] is “did not exhibit agonist activity; also recorded: Anti-proliferation in LNCaP F876L cells observed”. Moreover, the AUC(0-t) in data set [3] (read-out: Plasma Exposure AUC0-24) was 15600 ng·h/mL. In data set [3] (read-out: Plasma Exposure Cmax), the Cmax stood at 1150 ng/mL.

Turning to `Cc1ncsc1-c1ccc(CNC(=O)[C@@H]2C[C@@H](O)CN2C(=O)[C@@H](NC(=O)COCCCCOc2ccc(C(=O)N[C@H]3C(C)(C)[C@H](Oc4ccc(C#N)c(Cl)c4)C3(C)C)cc2)C(C)(C)C)cc1` [Example 163, (2S,4R)-1-[(2S)-3,3-dimethyl-2-{2-[4-(4-{[trans-3-(3-chloro-4-cyanophenoxy)-2,2,4,4-tetramethylcyclobutyl]carbamoyl}phenoxy)butoxy]acetamido}butanoyl]-4-hydroxy-N-{[4-(4-methyl-1,3-thiazol-5-yl)phenyl]methyl}pyrrolidine-2-carboxamide], in the data set on VCaP xenograft, the Tumor growth inhibition result is given as “Tumor growth inhibition was observed”. For the same molecule, the GI50 in the data set on VCaP cells (Homo sapiens, VCaP cells, 0.1 nM R1881, Table 37, read-out: GI50, Inhibition of VCaP Proliferation) is ≤ 50 nM. The “prostate weights (prostate involution)” value in the data set on C57B6 mouse model was “significant reduction in prostate weights; also recorded: significant prostate involution”. Further, on Androgen Receptor [4] (highest percentage of Androgen Receptor degradation observed, VCaP cells (Table 32)), the maximal degradation (Dmax) was > 71%. In addition, the DC50 at Androgen Receptor [4] (VCaP cells (Table 32)) is < 50 nM.

As to `CNC(=O)c1ccc(N2C(=S)N(c3ccc(C#N)c(C(F)(F)F)c3)C(=O)C2(C)C)cc1F` [enzalutamide, reference compound], the Tumor growth inhibition entry in the data set with VCaP xenograft is “Tumor growth inhibition was observed”. Also, in the data set on VCaP cells (LNCap and VCaP cell systems, increasing concentrations of AR agonist R1881 and cells containing the AR F876L mutation), the anti-proliferative activity result is “inactive”.

The values above are taken from patent US11427548B2 (Arvinas Operations, Inc., priority 2015, dated 2022).
